Reference: patent US20250127176A1 (priority 2021, published 2025)
Read-outs that look alike come from different tables or passages of the source.

Experiments:
[1] = tested on: late blight of potato (Phytophthora infestans); type: in vivo
late blight of potato = type: in vivo, Phytophthora infestans; conditions: T4: foliar spray, 7 days interval; 0.8 ml/L
[2] = T3: foliar spray 30, 45, 60 and 75th day, dose 2.0 mL/Litre
[3] = T4: foliar spray 30, 45, 60 and 75th day, dose 2 g/lit
[4] = T5: foliar spray 45th day only, dose 2 g/lit

Row | Molecule | Per cent Disease Index (PDI) [1, 2] [%] | Per cent reduction over control [1, 2] [%] | Per cent Disease Index (PDI) (late blight of potato) [%] | Per cent reduction over control (late blight of potato) [%] | Per cent Disease Index (PDI) [1, 3] [%] | Per cent reduction over control [1, 3] [%] | Per cent Disease Index (PDI) [1, 4] [%] | Per cent reduction over control [1, 4] [%]
1 | C#CCOc1ccc(CCNC(=O)C(OCC#C)c2ccc(Cl)cc2)cc1OC (centres unmarked) [Mandipropamid] | 12.5 | 86.7 | 14.11 | 83.40 |  |  |  | 
2 | Mancozeb |  |  |  |  | 15.6 | 83.4 | 45.2 | 51.9
